Experimental data as given in patent EP1001774B1, “USE OF PHOSPHOLAMBAN INHIBITORS FOR INCREASING CORONARY FLOW” (ORION CORPORATION, priority 1997, dated 1999).
“Also recorded” adds a separate entry of the source.

How the values were obtained:
[1] = tested on: endothelial cells of the coronary vessels; experiment: Coronary flow in freely beating isolated heart with and without Triton x 100 destruction of endothelial cells; set-up: species or system guinea-pig; conditions: 0.3 - 30 µM; Figures 4A and 4B
Procedure: Substance P, an endothelial-dependent vasodilator, was used as a reference compound. Triton x 100 was used to destroy the endothelial cells of the coronary vessels.
The experiment was carried out under constant pressure condition (50 mmHg) on freely beating heart. Coronary flow (ml / min) was continuously recorded by an electromagnetic flow meter with a flow probe inserted above the aortic cannula.
After 15 min baseline recording a bolus dose of substance P (0.1 µM / 0.3 ml) was added to the perfusion buffer via a side branch of the aortic cannula (Figure 4B). The addition of substance P was repeated twice before the injection of triton x 100 (0.05% / 0.2 ml) was given via a needle inserted into the cannula just above the aorta. After 85 min of triton x 100 injection a control dose of substance P was added twice to the perfusion buffer in order to check if the endothelial cells has destroyed. Thereafter the concentration range of 0.3 - 30 µM of the compound of Example 1c was tested. The vehicle concentration (0.1% DMSO) was kept constant throughout the experiment. A control experiment is shown in Figure 4A where the effect of Example 1 c is seen at the same concentration range when the […] is not disrupted by Triton x 100.

phospholamban = target: T1, phospholamban (Cavia porcellus, UniProt A0A286XLC6); experiment: Calcium uptake assay (fluo-3) in SR vesicles from cardiac tissue; format: biochemical, guinea-pig; conditions: 50 and 100 µM; Figure 2A; three experiments per group
T1 construct: calcium uptake into the SR vesicles prepared from cardiac tissue; from tissue; host or cells: guinea-pig heart (ventricular myocardium), SR vesicle preparation
T1 sequence (A0A286XLC6 1-52): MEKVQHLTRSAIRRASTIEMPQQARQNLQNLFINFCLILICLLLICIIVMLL
Description: (§1) The direct binding of a compound to the phospholamban protein can be ascertained by the circular dichroism (CD) spectroscopy. The methods for determining whether a compound relieves the inhibitory effect of phospholamban on SR Ca^2+-ATPase by direct binding to the phospholamban protein, i.e. is a phospholamban inhibitor, are illustrated in detail in the experimental section.
(§2) The effect on phospholamban of the compounds used in the invention was verified by measuring its effects on calcium uptake into the SR vesicles prepared from cardiac tissue and into vesicles prepared from fast skeletal muscle (psoas m.). […] The methods are described below in detail.
(§3) Guinea pigs (10-12) were decapited. Their hearts or the psoas muscles were excised, washed in ice-cold 0.9 % NaCl and cut into pieces in a buffer containing 20 mM Tris-maleate, 0.3 M sucrose, pH 7.0. Thereafter tissue pieces were homogenized with Polytron and further with Potter (10 strokes). The homogenate was centrifugated at 1000 g for 15 min at 4 °C. The supernatant was collected and the pellet was resuspended into 5 ml of the buffer (20 mM Tris-maleate, 0.3 M sucrose, pH 7.0) and recentrifugated at 1000 g for 10 min at 4 °C. The obtained supernatant was combined with the earlier collected supernatant and centrifugated once again at 10 000 g for 20 min at 4 °C. The final supernatant was filtered into a bottle equipped with a magnetic stirrer. KCl was added to the filtered supernatant to achieve the final concentration of 0.6 M (at 4 °C). The obtained solution was centrifugated at 100 000 g for 60 min at 4 °C. The pellet was suspended in 5 ml of the buffer containing 20 mM Tris-maleate, 0.3 M sucrose, pH 7.0 and centrifugated at 100 000 g for 60 min at 4 °C. The obtained pellet was suspended in 5 ml of buffer containing 20 mM Tris-maleate, 0.3 M sucrose, 0.1 M KCI, pH 7.0 and stored at -80 °C until use. The protein concentration was also measured in order to standardise the separately prepared vesicle preparations.
(§4) In the calcium uptake assay, the fluorescent indicator, fluo-3 was used to detect the decrease of the extravesicular Ca^2+-concentration, when the SR Ca^2+ATPase was transferring Ca^2+ from the extravesicular space into the SR-vesicles.
(§5) The SR-vesicles obtained above (50 µg protein/ml) were preincubated with or without the test compound at 37 °C for 5 min in the assay buffer containing 40 mM imidazole, 95 mM KCI, 5 mM NaN3, 5 mM MgCl2, 0.5 mM EGTA, 5 mM potassium oxalate, 2 µM ruthenium red, 5 µM fluo-3, pH 7.0. The free calcium was adjusted to 0.1 µM or to 0.04 µM by CaCl2. The reaction was initiated by adding ATP (5 mM). The final reaction volume was 1.5 ml. The fluorescence of reaction mixture was measured for 3 min by using the excitation and emission wavelengths of 510 nm and 530 nm, respectively.

[2] = target: T2, PLB[1-36 a.a.](Ser16PO3-, Thr17PO3-) (Homo sapiens, UniProt P26678); experiment: Circular dichroism (CD) spectroscopy, binding to double phosphorylated phospholamban fragment; conditions: 50 µM in water, Fig. 1
T2 construct: (PLB [1-36 a.a.](Ser16PO3-, Thr17PO3-)); made in house; host or cells: chemical peptide synthesis (no expression host)
T2 sequence (P26678 1-36): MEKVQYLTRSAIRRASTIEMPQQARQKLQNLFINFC
Procedure: (§6) Both the 36 amino acid N-terminal fragment of human phospholamban (PLB [1-36 a.a.]) and the 36 amino acid N-terminal fragment of double phosphorylated human phospholamban (PLB [1-36 a.a.](Ser16PO3-, Thr17PO3-)) were obtained by peptide synthesis. The peptides were purified by reverse phase HPLC, analysed for homogenity by mass spectrometry and were found pure at 97 %. The peptides were lyophilized and then resuspended in water at the final concentration of 0.1 mM, for CD analysis. The pH of both solutions was between 3 and 4 and was not further adjusted. Compound of Example 1c was solved in water at a final concentration of 0.1 mM. The pH was adjusted at 7.2 by adding 1 N NaOH.
(§7) Circular dichroism spectra were acquired at 24 °C on samples of 100 µl. The spectra were recorded on a Jasco J-720 spectropolarimeter using a 1 mm path-length quartz cuvette. The band width was 1 nm, the sensitivity 20 mdeg, the step resolution 0.5 nm, the response time 0.5 sec, and the scan speed 20 nm/min (from 250 to 190 nm). The spectra were expressed in [θ] x 10^-3 x degrees x cm^2 x dmol^-1.

SR Ca^2+-ATPase = experiment: Calcium uptake assay (fluo-3) in SR vesicles from fast skeletal muscle (psoas m.), which contain no phospholamban; format: biochemical, guinea-pig; conditions: 50 and 100 µM; Figure 2B; three experiments per group
Description: as §1, §2, §3, §4, §5

PLB[1-36 a.a.] = target: T3, PLB[1-36 a.a.] (Homo sapiens, UniProt P26678); experiment: Circular dichroism (CD) spectroscopy, binding to the cytosolic part of phospholamban; conditions: 50 µM in water, Fig. 1
T3 construct: N-terminal fragment of human phospholamban (PLB [1-36 a.a.]); made in house; host or cells: chemical peptide synthesis (no expression host)
T3 sequence (P26678 1-36 limits assumed): T2 sequence (P26678 1-36)
Procedure: as §6, §7

coronary arteries = experiment: Coronary flow in isolated paced heart (Langendorff, constant pressure); set-up: species or system guinea-pig; conditions: 0.3 - 30 µM; six hearts paced at 250 beats/min; Figure 3A
Procedure: Guinea-pigs of either sex weighing 300-400 g were used in the study. After the guinea-pig was sacrificed by a blow on the skull and decapitated the heart was rapidly excised. The heart was then rinsed in cold oxygenated perfusion buffer. A cannula was inserted into the aorta and secured with a ligature. Retrograde perfusion began as soon as the heart was placed in a thermostatically controlled moist chamber of the Langendorff apparatus. Modified Tyrode solution (37 °C), equilibrated in a thermostatically controlled bulb oxygenator with carbogen (95 % O2 and 5% CO2) was used as a perfusion buffer. The composition of the Tyrode solution was (in mM): NaCl 135; MgCl2 x 6H2O 1; KCl 5; CaCl2 x 2H2O 2; NaHCO3 15; Na2HPO4 x 2H2O 1; glucose 10; pH 7.3-7.4. The experiments were carried out under constant pressure condition (50 mmHg). After a short prestabilization (10 min) a latex balloon (size 4) was carefully placed into the left ventricle through the left pulmonary vein and the left atrium. The latex balloon was attached to a stainless-steel cannula coupled with a pressure transducer. The latex balloon, the cannula and the chamber of the pressure transducer were filled with ethylene glycol / water (1:1) mixture avoiding any air-bubble. The isovolumetric left ventricular pressure was recorded through the pressure transducer. The maximal positive and negative derivatives of the left ventricular pressure were calculated by using the digitized pressure signals. At the beginning of the experiment, the volume of the balloon was adjusted to obtain a diastolic pressure of approximately 5 mmHg. Coronary flow (ml/min) was continuously recorded by an electromagnetic flow meter with a flow probe inserted above the aortic cannula. The heart was paced at 250 beats/min with a coaxial electrode localized on the surface of the right atrium. Before starting the experiment, the heart was allowed to stabilise further for 30 - 50 min with vehicle (0.1% DMSO) to reach a stable coronary flow.
After 15 min baseline recording various concentrations of the test compound of Example 1c were added to the perfusion buffer at 15 min intervals. The concentration range of 0.3 - 30 µM was tested. The vehicle concentration (0.1% DMSO) was kept constant throughout the experiment.

With `Cc1c(Cc2ccccc2)c(=O)oc2cc(OCc3nnn[nH]3)cc(OCc3nnn[nH]3)c12` [Example 1c, 3-Benzyl-5,7-bis[(1H -tetrazol-5-yl)methoxy]-4-methyl-2H-1-benzopyran-2-one] the “mechanism of the vasodilatory effect (coronary flow with / without Triton x 100)” value [1] was “due to an endothelial-mediated mechanism”, the “Ca^2+ uptake rate into the cardiac SR vesicles” value (phospholamban) was “accelerated the calcium uptake into the cardiac SR vesicles” and the “interaction with PLB[1-36 a.a.](Ser16PO3-, Thr17PO3-) (CD spectra)” value [2] was “does not interact or interacts weakly with the phosphorylated phospholamban”. For the same compound, the “Ca^2+ uptake rate into the fast skeletal muscle SR vesicles” value (SR Ca^2+-ATPase) was “did not change the calcium uptake”, the “interaction with PLB[1-36 a.a.] (CD spectra)” value (PLB[1-36 a.a.]) was “forms a complex with PLB at their N-terminal domain; also recorded: interacts with the cytosolic part of phospholamban PLB[1-36 a.a.]” and the coronary flow (coronary arteries) was “increase in coronary flow”.
